According to ChEMBL document CHEMBL1158007, “Steroidal glycosides from the bulbs of Allium jesdianum” (J Nat Prod, 1999):

Tests used:
Format in all cases: functional
[1] = system: MDA-MB-231; assay: Growth inhibition of human MDA-MB-231cells after 72 hrs by MTT assay; details: MDA-MB-231, 72 h
[2] = system: NCI-H226; assay: Growth inhibition of human NCI-H226 cells after 72 hrs by MTT assay; details: NCI-H226, 72 h
[3] = system: SW-620; assay: Growth inhibition of human SW620 cells after 72 hrs by MTT assay; details: SW-620, 72 h
[4] = system: RPMI-8226; assay: Growth inhibition of human RPMI 8226 cells after 72 hrs by MTT assay; details: RPMI-8226, 72 h
[5] = system: TK-10; assay: Growth inhibition of human TK-10 cells after 72 hrs by MTT assay; details: TK-10, 72 h
[6] = system: Malme-3M; assay: Growth inhibition of human MALME-3M cells after 72 hrs by MTT assay
[7] = system: SR; assay: Growth inhibition of human SR cells after 72 hrs by MTT assay
[8] = system: HCT-15; assay: Growth inhibition of human HCT-15 cells after 72 hrs by MTT assay; details: HCT-15, 72 h
[9] = system: OVCAR-8; assay: Growth inhibition of human OVCAR8 cells after 72 hrs by MTT assay; details: OVCAR-8, 72 h
[10] = system: HL-60(TB); assay: Growth inhibition of human HL-60(TB) cells after 72 hrs by MTT assay; details: HL-60, 72 h
[11] = system: PC-3; assay: Growth inhibition of human PC-3 cells after 72 hrs by MTT assay; details: PC-3, 72 h
[12] = system: IGROV-1; assay: Growth inhibition of human IGROV1 cells after 72 hrs by MTT assay; details: IGROV-1, 72 h
[13] = system: SK-OV-3; assay: Growth inhibition of human SKOV3 cells after 72 hrs by MTT assay; details: SK-OV-3, 72 h
[14] = system: KM12; assay: Growth inhibition of human KM12 cells after 72 hrs by MTT assay; details: KM12, 72 h
[15] = system: NCI-H460; assay: Growth inhibition of human NCI-H460 cells after 72 hrs by MTT assay; details: NCI-H460, 72 h
[16] = system: NCI-H322M; assay: Growth inhibition of human NCI-H322M cells after 72 hrs by MTT assay
[17] = system: OVCAR-4; assay: Growth inhibition of human OVCAR-4 cells after 72 hrs by MTT assay; details: OVCAR-4, 72 h
[18] = system: SF-295; assay: Growth inhibition of human SF-295 cells after 72 hrs by MTT assay; details: SF-295, 72 h
[19] = system: A498; assay: Growth inhibition of human A498 cells after 72 hrs by MTT assay; details: A498, 72 h
[20] = system: NCI/ADR-RES; assay: Growth inhibition of human NCI/ADR-RES cells after 72 hrs by MTT assay
[21] = Growth inhibition of human Hs 578T cells after 72 hrs by MTT assay
[22] = read-out: LC50 (the source's name)

C[C@@H]1CC[C@@]2(OC1)O[C@H]1C[C@H]3[C@@H]4CC[C@H]5C[C@@H](O[C@@H]6O[C@H](CO)[C@H](O[C@@H]7O[C@H](CO)[C@@H](O)[C@H](O[C@@H]8OC[C@@H](O)[C@H](O)[C@H]8O)[C@H]7O[C@@H]7O[C@H](CO)[C@@H](O)[C@H](O)[C@H]7O)[C@H](O)[C@H]6O)[C@H](O)C[C@]5(C)[C@H]4CC[C@]3(C)[C@H]1[C@@H]2C
GI50 [1]: 1.8 µM | TGI [1]: 13 µM | CC50 [1, 22]: 87 µM | GI50 [2]: 15 µM | TGI [2]: 34 µM | CC50 [2, 22]: 76 µM | GI50 [3]: 1.7 µM | TGI [3]: 19 µM | CC50 [3, 22]: 78 µM | GI50 [4]: 0.79 µM | TGI [4]: 23 µM | CC50 [4, 22]: 81 µM | GI50 [5]: 4.4 µM | TGI [5]: < 100 µM | CC50 [5, 22]: < 100 µM | GI50 [6]: 19 µM | TGI [6]: 35 µM | CC50 [6, 22]: 69 µM | GI50 [7]: 63 µM | TGI [7]: < 100 µM | CC50 [7, 22]: < 100 µM | GI50 [8]: 1.4 µM | TGI [8]: 11 µM | CC50 [8, 22]: 46 µM | GI50 [9]: 2.5 µM | TGI [9]: 6.3 µM | CC50 [9, 22]: 47 µM | GI50 [10]: 4.7 µM | TGI [10]: 48 µM | CC50 [10, 22]: < 100 µM | GI50 [11]: 3.1 µM | TGI [11]: 15 µM | CC50 [11, 22]: 41 µM | GI50 [12]: 3.7 µM | TGI [12]: 17 µM | CC50 [12, 22]: 48 µM | GI50 [13]: 13 µM | TGI [13]: 41 µM | CC50 [13, 22]: < 100 µM | GI50 [14]: 8.9 µM | TGI [14]: 23 µM | CC50 [14, 22]: 55 µM | GI50 [15]: 1.3 µM | TGI [15]: 4.2 µM | CC50 [15, 22]: 16 µM | GI50 [16]: 12 µM | TGI [16]: 26 µM | CC50 [16, 22]: 55 µM | GI50 [17]: 2 µM | TGI [17]: 4.6 µM | CC50 [17, 22]: 13 µM | GI50 [18]: 12 µM | TGI [18]: 49 µM | CC50 [18, 22]: < 100 µM | GI50 [19]: 4.9 µM | TGI [19]: 35 µM | CC50 [19, 22]: < 100 µM | GI50 [20]: 2.8 µM | TGI [20]: 12 µM | CC50 [20, 22]: 46 µM | GI50 [21]: 17 µM | TGI [21]: 32 µM | CC50 [21, 22]: 63 µM
